Results reported in US8247211B2, “Glycopeptide antibiotics” (American Cyanamid Company, priority 2001, dated 2012).
≈ marks a conversion by molar mass, not a printed value.

Assays:
Test in all cases: In vitro antibacterial evaluation: minimum inhibitory concentration (MIC), broth dilution method
Format in all cases: cell-based
Enterococcus sp. = tested on: Enterococcus sp.
Outline: (§1)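 MIC by broth dilution in Mueller-Hinton II medium following NCCLS M7-A2. Inoculum was 5×10^5 CFU/mL and antibiotic was tested over 64-0.06 μg/mL. Gram-positive panel included clinical isolates resistant to methicillin, penicillin and/or vancomycin.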

Streptococcus sp. = tested on: Streptococcus sp.
Outline: as §1

Staphylococcus sp. = conditions: broth dilution, 18 hours at 35° C.
Outline: as §1

Escherichia coli = tested on: Escherichia coli
Outline: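 Following NCCLS approved standard M7-A2, compounds are serially diluted from 64 to 0.06 μg/mL in Muller-Hinton II […] and inoculated at 5×10^5 CFU/mL; the MIC is the minimum concentration at which growth is inhibited.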

[1] = broth dilution, inoculum 5×10^5 CFU/mL, 18 hours at 35° C.

SMILES: CC(=O)n1cc(C2OCC3OC(OC4C(CO)OC(Oc5ccc(CC6NC(=O)C(C(C)c7ccccc7)NC(=O)CNC(=O)C(CO)NC(=O)C(C(O)C7CNC(=N)N7C7OC(CO)C(O)C(O)C7O)NC(=O)C(C(O)C7CNC(=N)N7)NC6=O)cc5)C(O)C4O)C(O)C(O)C3O2)c2ccccc21 (stereo not drawn) [Example 161, Cyclo[glycyl-β-methylphenylalanyl-O-[4-O-[4,6-O-[1-(acetylindol-3-yl)methylene]hexopyranosyl]hexopyranosyl]tyrosyl-3-(2-iminoimidazolidin-4-yl)seryl-3-(3-hexopyranosyl-2-iminoimidazolidin-4-yl)serylseryl]]
- MIC Enterococcus avium (GC 4558) (Enterococcus sp.; [1]): 16 µg/mL (≈ 10.9 µM)
- MIC Enterococcus faecalis (ATCC 29212) (Enterococcus sp.; [1]): 16 µg/mL (≈ 10.9 µM)
- MIC Enterococcus faecalis (GC 4552) (Enterococcus sp.; [1]): 16 µg/mL (≈ 10.9 µM)
- MIC Enterococcus faecalis (GC 4553) (Enterococcus sp.; [1]): 16 µg/mL (≈ 10.9 µM)
- MIC Enterococcus faecalis (GC 4554) (Enterococcus sp.; [1]): 16 µg/mL (≈ 10.9 µM)
- MIC Enterococcus faecalis (GC 6189) (Enterococcus sp.; [1]): 16 µg/mL (≈ 10.9 µM)
- MIC Enterococcus faecium (GC 2243) (Enterococcus sp.; [1]): 16 µg/mL (≈ 10.9 µM)
- MIC Enterococcus faecium (GC 4556) (Enterococcus sp.; [1]): 16 µg/mL (≈ 10.9 µM)
- MIC Enterococcus faecium (GC 4557) (Enterococcus sp.; [1]): 8 µg/mL (≈ 5.46 µM)
- MIC Enterococcus faecalis (ATCC 29212) (Enterococcus sp.; strain ATCC 29212): 16 µg/mL (≈ 10.9 µM)
- MIC Enterococcus faecalis (GC 2242) (Enterococcus sp.; strain GC 2242): 16 µg/mL (≈ 10.9 µM)
- MIC Enterococcus faecium (GC 2243) (Enterococcus sp.; strain GC 2243): 16 µg/mL (≈ 10.9 µM)
- MIC Enterococcus faecalis (GC 2691) (Enterococcus sp.; strain GC 2691): 16 µg/mL (≈ 10.9 µM)
- MIC Enterococcus faecalis (GC 3059) (Enterococcus sp.; strain GC 3059): 16 µg/mL (≈ 10.9 µM)
- MIC Enterococcus faecalis (GC 4552) (Enterococcus sp.; strain GC 4552): 16 µg/mL (≈ 10.9 µM)
- MIC Enterococcus faecalis (GC 4553) (Enterococcus sp.; strain GC 4553): 16 µg/mL (≈ 10.9 µM)
- MIC Enterococcus faecalis (GC 4554) (Enterococcus sp.; strain GC 4554): 16 µg/mL (≈ 10.9 µM)
- MIC Enterococcus faecium (GC 4556) (Enterococcus sp.; strain GC 4556): 16 µg/mL (≈ 10.9 µM)
- MIC Enterococcus faecium (GC 4557) (Enterococcus sp.; strain GC 4557): 8 µg/mL (≈ 5.46 µM)
- MIC Enterococcus avium (GC 4558) (Enterococcus sp.; strain GC 4558): 16 µg/mL (≈ 10.9 µM)
- MIC Enterococcus faecalis (GC 6189) (Enterococcus sp.; strain GC 6189): 16 µg/mL (≈ 10.9 µM)
- MIC Streptococcus pneumoniae (ATCC 6301) (Streptococcus sp.; strain ATCC 6301): 0.5 µg/mL (≈ 0.341 µM)
- MIC Streptococcus pneumoniae (GC 1894) (Streptococcus sp.; strain GC 1894): 0.12 µg/mL (≈ 0.0819 µM)
- MIC Streptococcus pyogenes (GC 4563) (Streptococcus sp.; strain GC 4563): 1 µg/mL (≈ 0.683 µM)
- MIC Streptococcus agalactiae (GC 4564) (Streptococcus sp.; strain GC 4564): 1 µg/mL (≈ 0.683 µM)
- MIC Streptococcus pneumoniae (GC 4565) (Streptococcus sp.; strain GC 4565): 0.5 µg/mL (≈ 0.341 µM)
- MIC Coagulase Negative Staphylococcus (GC 4547) (Staphylococcus sp.; 5×10^5 CFU/mL): 4 µg/mL (≈ 2.73 µM)
- MIC Coagulase Negative Staphylococcus (GC 4548) (Staphylococcus sp.; 5×10^5 CFU/mL): 2 µg/mL (≈ 1.37 µM)
- MIC Coagulase Negative Staphylococcus (GC 4549) (Staphylococcus sp.; 5×10^5 CFU/mL): 2 µg/mL (≈ 1.37 µM)
- MIC Coagulase Negative Staphylococcus (GC 4551) (Staphylococcus sp.; 5×10^5 CFU/mL): 8 µg/mL (≈ 5.46 µM)
- MIC Coagulase Negative Staphylococcus (GC 6257) (Staphylococcus sp.; 5×10^5 CFU/mL): 2 µg/mL (≈ 1.37 µM)
- MIC Staphylococcus aureus (ATCC 29213) (Staphylococcus sp.; 5×10^5 CFU/mL): 4 µg/mL (≈ 2.73 µM)
- MIC Staphylococcus aureus (GC 1131) (Staphylococcus sp.; 5×10^5 CFU/mL): 8 µg/mL (≈ 5.46 µM)
- MIC Staphylococcus aureus (GC 3051) (Staphylococcus sp.; 5×10^5 CFU/mL): 8 µg/mL (≈ 5.46 µM)
- MIC Staphylococcus aureus (GC 3053) (Staphylococcus sp.; 5×10^5 CFU/mL): 8 µg/mL (≈ 5.46 µM)
- MIC Staphylococcus aureus (GC 4541) (Staphylococcus sp.; 5×10^5 CFU/mL): 4 µg/mL (≈ 2.73 µM)
- MIC Staphylococcus aureus (GC 4542) (Staphylococcus sp.; 5×10^5 CFU/mL): 4 µg/mL (≈ 2.73 µM)
- MIC Staphylococcus aureus (GC 4544) (Staphylococcus sp.; 5×10^5 CFU/mL): 8 µg/mL (≈ 5.46 µM)
- MIC Staphylococcus aureus (GC 4545) (Staphylococcus sp.; 5×10^5 CFU/mL): 4 µg/mL (≈ 2.73 µM)
- MIC Staphylococcus aureus-SMITH (GC 4543) (Staphylococcus sp.; 5×10^5 CFU/mL): 4 µg/mL (≈ 2.73 µM)
- MIC Staphylococcus haemolyticus (GC 4546) (Staphylococcus sp.; 5×10^5 CFU/mL): 4 µg/mL (≈ 2.73 µM)
- MIC Staphylococcus aureus (ATCC 29213) (Staphylococcus sp.; strain ATCC 29213): 4 µg/mL (≈ 2.73 µM)
- MIC Staphylococcus aureus (GC 1131) (Staphylococcus sp.; strain GC 1131): 8 µg/mL (≈ 5.46 µM)
- MIC Staphylococcus aureus (GC 3051) (Staphylococcus sp.; strain GC 3051): 8 µg/mL (≈ 5.46 µM)
- MIC Staphylococcus aureus (GC 3053) (Staphylococcus sp.; strain GC 3053): 8 µg/mL (≈ 5.46 µM)
- MIC Staphylococcus aureus (GC 4541) (Staphylococcus sp.; strain GC 4541): 4 µg/mL (≈ 2.73 µM)
- MIC Staphylococcus aureus (GC 4542) (Staphylococcus sp.; strain GC 4542): 4 µg/mL (≈ 2.73 µM)
- MIC Staphylococcus aureus-SMITH (GC 4543) (Staphylococcus sp.; strain GC 4543): 4 µg/mL (≈ 2.73 µM)
- MIC Staphylococcus aureus (GC 4544) (Staphylococcus sp.; strain GC 4544): 8 µg/mL (≈ 5.46 µM)
- MIC Staphylococcus aureus (GC 4545) (Staphylococcus sp.; strain GC 4545): 4 µg/mL (≈ 2.73 µM)
- MIC Staphylococcus haemolyticus (GC 4546) (Staphylococcus sp.; strain GC 4546): 4 µg/mL (≈ 2.73 µM)
- MIC Coagulase Negative Staphylococcus (GC 4547) (Staphylococcus sp.; strain GC 4547): 4 µg/mL (≈ 2.73 µM)
- MIC Coagulase Negative Staphylococcus (GC 4548) (Staphylococcus sp.; strain GC 4548): 2 µg/mL (≈ 1.37 µM)
- MIC Coagulase Negative Staphylococcus (GC 4549) (Staphylococcus sp.; strain GC 4549): 2 µg/mL (≈ 1.37 µM)
- MIC Coagulase Negative Staphylococcus (GC 4551) (Staphylococcus sp.; strain GC 4551): 8 µg/mL (≈ 5.46 µM)
- MIC Coagulase Negative Staphylococcus (GC 6257) (Staphylococcus sp.; strain GC 6257): 2 µg/mL (≈ 1.37 µM)
- MIC Escherichia coli (ATCC 25922) (Escherichia coli; strain ATCC 25922): >64 µg/mL
- MIC Escherichia coli (GC 4559) (Escherichia coli; strain GC 4559): >64 µg/mL
- MIC Escherichi coli (GC 4560) (Escherichia coli; strain GC 4560): 2 µg/mL (≈ 1.37 µM)
